In US12540120B2, “Herbicidal compounds” (SYNGENTA CROP PROTECTION AG, priority 2019, dated 2026):

Key:
Assay type in all cases: in vivo
Solanum nigrum (SOLNI) [1] = experiment: B1 Post-Emergence Efficacy—Test 1; conditions: post-emergence application, 1000 g/ha, evaluated after 13 days
Protocol: (§1) B1 Post-Emergence Efficacy—Test 1 Seeds of a variety of test species are sown in standard soil in pots:—Solanum nigrum (SOLNI), Amaranthus retoflexus (AMARE), Setaria faberi (SETFA), Echinochloa crus-galli (ECHCG), Ipomoea hederacea (IPOHE), Lolium perenne (LOLPE). After 8 days cultivation (post-emergence) under controlled conditions in a glasshouse (at 24/16° C., day/night; 14 hours light; 65% humidity), the plants are sprayed with an aqueous spray solution derived from the formulation of the technical active ingredient in acetone/water (50:50) solution containing 0.5% Tween 20 (polyoxyethylene sorbitan monolaurate, CAS RN 9005-64-5). Compounds are applied at 1000 g/ha. The test plants are then grown in a glasshouse under controlled conditions in a glasshouse (at 24/16° C., day/night; 14 hours light; 65% humidity) and watered twice daily. After 13 days, the test is evaluated for the percentage damage caused to the plant. The biological activities are assessed on a five point scale (5=80-100%; 4=60-79%; 3=40-59%; 2=20-39%; 1=0-19%). A blank value in the table is indicative that the compound was not tested on that species.

Setaria faberi (SETFA) [2] = experiment: B1 Post-Emergence Efficacy—Test 1; conditions: post-emergence application, 1000 g/ha, evaluated after 13 days
Protocol: as §1

[3] = tested on: Ipomoea hederacea (IPOHE); experiment: B1 Post-Emergence Efficacy—Test 1; conditions: post-emergence application, 1000 g/ha, evaluated after 13 days
Protocol: as §1

Lolium perenne (LOLPE) [4] = experiment: B1 Post-Emergence Efficacy—Test 1; conditions: post-emergence application, 1000 g/ha, evaluated after 13 days
Protocol: as §1

[5] = tested on: Echinochloa crus-galli (ECHCG); experiment: B1 Post-Emergence Efficacy—Test 1; conditions: post-emergence application, 1000 g/ha, evaluated after 13 days
Protocol: as §1

[6] = tested on: Amaranthus retoflexus (AMARE); experiment: B1 Post-Emergence Efficacy—Test 1; conditions: post-emergence application, 1000 g/ha, evaluated after 13 days
Protocol: as §1

Solanum nigrum (SOLNI) [7] = experiment: B5 Pre-Emergence Efficacy—Test 2; conditions: 250 g/ha, evaluated after 13 days
Method in brief: (§2)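 Pre-emergence spray, 250 g/ha, acetone/water 50:50 + 0.5% Tween 20, applied 1 day post-sowing. Glasshouse 24/16 °C, 14 h light, 65% RH. Damage read at 13 d; 5-point scale (5=80-100%, 1=0-19%).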

[8] = tested on: Amaranthus retoflexus (AMARE); experiment: B5 Pre-Emergence Efficacy—Test 2; conditions: 250 g/ha, evaluated after 13 days
Method in brief: as §2

Solanum nigrum (SOLNI) [9] = experiment: B2 Post-Emergence Efficacy—Test 2; conditions: post-emergence application, 250 g/ha, evaluated after 13 days (Test 2)
Method in brief: (§3)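 Foliar application at 250 g/ha to seedlings 8 days post-sowing; carrier acetone/water (50:50), 0.5% Tween 20. Injury assessed at 13 days and banded into scores of 1 (0-19%) to 5 (80-100%).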

Setaria faberi (SETFA) [10] = experiment: B2 Post-Emergence Efficacy—Test 2; conditions: post-emergence application, 250 g/ha, evaluated after 13 days (Test 2)
Method in brief: as §3

[11] = tested on: Ipomoea hederacea (IPOHE); experiment: B2 Post-Emergence Efficacy—Test 2; conditions: post-emergence application, 250 g/ha, evaluated after 13 days (Test 2)
Method in brief: as §3

Lolium perenne (LOLPE) [12] = experiment: B2 Post-Emergence Efficacy—Test 2; conditions: post-emergence application, 250 g/ha, evaluated after 13 days (Test 2)
Method in brief: as §3

[13] = tested on: Echinochloa crus-galli (ECHCG); experiment: B2 Post-Emergence Efficacy—Test 2; conditions: post-emergence application, 250 g/ha, evaluated after 13 days (Test 2)
Method in brief: as §3

[14] = tested on: Amaranthus retoflexus (AMARE); experiment: B2 Post-Emergence Efficacy—Test 2; conditions: post-emergence application, 250 g/ha, evaluated after 13 days (Test 2)
Method in brief: as §3

Solanum nigrum (SOLNI) [15] = experiment: B4 Pre-Emergence Efficacy—Test 1; conditions: pre-emergence application, 1000 g/ha, evaluated after 13 days
Protocol: (§4) B4 Pre-Emergence Efficacy—Test 1 Seeds of a variety of test species were sown in standard soil in pots: Solanum nigrum (SOLNI), Amaranthus retoflexus (AMARE), Setaria faberi (SETFA), Echinochloa crus-galli (ECHCG), Ipomoea hederacea (IPOHE), Lolium perenne (LOLPE). After cultivation for one day (pre-emergence) under controlled conditions in a glasshouse (at 24/16° C., day/night; 14 hours light; 65% humidity), the plants were sprayed with an aqueous spray solution derived from the formulation of the technical active ingredient in acetone/water (50:50) solution containing 0.5% Tween 20 (polyoxyethelyene sorbitan monolaurate, CAS RN 9005-64-5). Compounds are applied at 1000 g/ha. The test plants were then grown in a glasshouse under controlled conditions (at 24/16° C., day/night; 14 hours light; 65% humidity) and watered twice daily. After 13 days, the test is evaluated for the percentage damage caused to the plant. The biological activities are assessed on a five point scale (5=80-100%; 4=60-79%; 3=40-59%; 2=20-39%; 1=0-19%). A blank value in the table is indicative that the compound was not tested on that species.

Setaria faberi (SETFA) [16] = experiment: B4 Pre-Emergence Efficacy—Test 1; conditions: pre-emergence application, 1000 g/ha, evaluated after 13 days
Protocol: as §4

[17] = tested on: Ipomoea hederacea (IPOHE); experiment: B4 Pre-Emergence Efficacy—Test 1; conditions: pre-emergence application, 1000 g/ha, evaluated after 13 days
Protocol: as §4

Lolium perenne (LOLPE) [18] = experiment: B4 Pre-Emergence Efficacy—Test 1; conditions: pre-emergence application, 1000 g/ha, evaluated after 13 days
Protocol: as §4

[19] = tested on: Echinochloa crus-galli (ECHCG); experiment: B4 Pre-Emergence Efficacy—Test 1; conditions: pre-emergence application, 1000 g/ha, evaluated after 13 days
Protocol: as §4

[20] = tested on: Amaranthus retoflexus (AMARE); experiment: B4 Pre-Emergence Efficacy—Test 1; conditions: pre-emergence application, 1000 g/ha, evaluated after 13 days
Protocol: as §4

Setaria faberi (SETFA) [21] = experiment: B5 Pre-Emergence Efficacy—Test 2; design: key: 5-point scale: 5=80-100%, 4=60-79%, 3=40-59%, 2=20-39%, 1=0-19% damage; conditions: 250 g/ha, evaluated after 13 days
Method in brief: as §2

[22] = tested on: Ipomoea hederacea (IPOHE); experiment: B5 Pre-Emergence Efficacy—Test 2; design: key: 5-point scale: 5=80-100%, 4=60-79%, 3=40-59%, 2=20-39%, 1=0-19% damage; conditions: 250 g/ha, evaluated after 13 days
Method in brief: as §2

Lolium perenne (LOLPE) [23] = experiment: B5 Pre-Emergence Efficacy—Test 2; design: key: 5-point scale: 5=80-100%, 4=60-79%, 3=40-59%, 2=20-39%, 1=0-19% damage; conditions: 250 g/ha, evaluated after 13 days
Method in brief: as §2

[24] = tested on: Echinochloa crus-galli (ECHCG); experiment: B5 Pre-Emergence Efficacy—Test 2; design: key: 5-point scale: 5=80-100%, 4=60-79%, 3=40-59%, 2=20-39%, 1=0-19% damage; conditions: 250 g/ha, evaluated after 13 days
Method in brief: as §2

Cc1nn(C)c(=O)c(-c2c(F)ccc(Cl)c2CCc2ccc(C#N)cc2)c1O [Compound A-1.036, 4-[2-[6-chloro-3-fluoro-2-(5-hydroxy-2,6-dimethyl-3-oxo-pyridazin-4-yl)phenyl]ethyl]benzonitrile]
5 (5=80-100%): percentage damage caused to the plant, five point scale, SOLNI (Solanum nigrum (SOLNI) [1]) | percentage damage caused to the plant, five point scale, SETFA (Setaria faberi (SETFA) [2]) | percentage damage caused to the plant, five point scale, IPOHE [3] | percentage damage caused to the plant, five point scale, LOLPE (Lolium perenne (LOLPE) [4]) | percentage damage caused to the plant, five point scale, ECHCG [5] | percentage damage caused to the plant, five point scale, AMARE [6] | Control of weed species after pre-emergence application, SOLNI (percentage damage, five point scale) (Solanum nigrum (SOLNI) [7]) | Control of weed species after pre-emergence application, AMARE (percentage damage, five point scale) [8] | percentage damage caused to the plant, five point scale, SOLNI (Solanum nigrum (SOLNI) [9]) | percentage damage caused to the plant, five point scale, SETFA (Setaria faberi (SETFA) [10]) | percentage damage caused to the plant, five point scale, IPOHE [11] | percentage damage caused to the plant, five point scale, LOLPE (Lolium perenne (LOLPE) [12]) | percentage damage caused to the plant, five point scale, ECHCG [13] | percentage damage caused to the plant, five point scale, AMARE [14] | percentage damage caused to the plant, five point scale, SOLNI (Solanum nigrum (SOLNI) [15]) | percentage damage caused to the plant, five point scale, SETFA (Setaria faberi (SETFA) [16]) | percentage damage caused to the plant, five point scale, IPOHE [17] | percentage damage caused to the plant, five point scale, LOLPE (Lolium perenne (LOLPE) [18]) | percentage damage caused to the plant, five point scale, ECHCG [19] | percentage damage caused to the plant, five point scale, AMARE [20] | Control of weed species after pre-emergence application, SETFA (percentage damage, five point scale) (Setaria faberi (SETFA) [21]) | Control of weed species after pre-emergence application, IPOHE (percentage damage, five point scale) [22] | Control of weed species after pre-emergence application, LOLPE (percentage damage, five point scale) (Lolium perenne (LOLPE) [23]) | Control of weed species after pre-emergence application, ECHCG (percentage damage, five point scale) [24]
